Reference: patent US12304933B2, “Disease treatment drug based on mesenchymal-stem-cell mobilization” (StemRIM Inc., priority 2018, dated 2025)

Columns and labels:
psoriasis model mice = assay: Auricular thickness in imiquimod-induced psoriasis model mice; format: in vivo, C57BL/6 mice; conditions: 5% imiquimod cream on auricular skin once a day for seven days; 5 mg/kg/day peptide into tail vein for seven days; n=4; FIG. 9
Procedure: To induce psoriasis by imiquimod, a cream containing 5% imiquimod (Beseruna cream 5%, Mochida Pharmaceutical Co., Ltd.) was used. In the drawing corresponding to the Example of the present application, imiquimod is referred to as IMQ. In addition, the peptide NP-3 (TFA salt) described in Example 1 was used as a test substance.
C57BL/6 mice (7 weeks old, female, body weight about 20 g) were prepared. To induce psoriasis, a cream containing 5% imiquimod was applied on the auricular skin of the mice at an amount of 25 mg/ear/day (1.25 mg/ear/day imiquimod) once a day for seven days. Moreover, mice without imiquimod application (hereinafter, referred to as “normal mice”) were used as a comparison target.
The psoriasis model mice prepared as described above were divided into a peptide-administered group (n=4) and a control group (n=4). […]
During the test period, the auricle thickness of mice was measured daily using a micrometer (manufactured by Mitutoyo Co., Ltd., Product No. CLM1-15QM), and the size of change from the auricle thickness before the start of imiquimod application (Day 0) was calculated. The degree of skin thickening was evaluated using the size of change as an index.

[1] = system: mesenchymal stem cells in peripheral blood; assay: Solid-phase culture of peripheral blood after administration of HMGB1 peptide 1-44 (earlier experiments of the inventors); format: in vivo
Source text: In addition, the colonies obtained as a result of culturing, on a solid phase, peripheral blood after administration of a peptide consisting of amino acid residues 1-44 of the human HMGB1 protein (hereinafter, HMGB1 peptide 1-44), which has an activity of mobilizing mesenchymal stem cells into peripheral blood, have been confirmed to have adherability to solid phase and self-renewal ability, and to be PDGFRα positive. They have also been confirmed to have a gene expression profile characteristic to mesenchymal stem cells, based on the results of clustering the transcriptome analysis data and performing gene ontology analysis.
Furthermore, it has been confirmed that the number of colonies obtained by solid-phase culture is larger in the peripheral blood after administration of HMGB1 peptide 1-44 than in the peripheral blood after administration of physiological saline.

Row | Substance | increase in auricular thickness as compared with the control group (psoriasis model mice) | number of colonies obtained by solid-phase culture of peripheral blood, compared with peripheral blood after administration of physiological saline [1]
1 | NP-3: Chemically synthesized fragment peptide of mouse YBX1 protein, positions 174-203, SEQ ID NO: 37 (SAPEGQAQQRRPYRRRRFPPYYMRRPYARR; listed as Mus musculus) | suppressed | –
2 | HMGB1 peptide 1-44: peptide consisting of amino acid residues 1-44 of the human HMGB1 protein, which has an activity of mobilizing mesenchymal stem cells into peripheral blood (MGKGDPKKPRGKMSSYAFFVQTCREEHKKKHPDASVNFSEFSKK; UniProt P09429 1-44, looked up, fragment) | – | larger
